# Test results from paper PMC5443783, “Prostaglandin E2 glyceryl ester is an endogenous agonist of the nucleotide receptor P2Y6” (Scientific Reports, 2017).
# How the values were obtained:
# Assay in all cases: PathHunter β-Arrestin orphan GPCR panel
# Assay type in all cases: cell-based
# Conditions in all cases: agonist mode, 0.001 µM
# GPR162 = target: T1, GPR162 (Homo sapiens, UniProt Q16538)
# T1 construct: purchased DiscoveRx (PathHunter β-Arrestin orphan GPCR panel)
# Source text: (§1) For screening orphan GPCRs as possible targets for PGE2-G, the PathHunter® β-Arrestin assay (DiscoveRx Co., USA) was used. It monitors the activation of a GPCR by utilizing an enzyme fragment complementation assay with β-galactosidase as the functional reporter. Briefly, the enzyme is split into two complementary portions expressed as fusion proteins in the cell. The enzyme acceptor is fused to β2-arrestin, and the ProLink donor peptide is fused to the GPCR of interest. Upon GPCR stimulation, β2-arrestin is recruited to the receptor, bringing the two fragments of β-galactosidase together. This generates an active enzyme that can convert a chemiluminescent substrate, generating a signal detectable on a standard microplate reader (see manufacturer’s instructions). In total, 78 GPCRs, previously considered orphan and individually transfected into cells, were screened by DiscoveRx (Supplementary Table S1). The percentage activity given in the results is calculated using the following formula: % activity = 100% × (mean RLU of test sample - mean RLU of vehicle control)/mean RLU of vehicle control).
# GPR30 = target: T2, GPR30 (Homo sapiens, UniProt Q99527)
# T2 construct: purchased DiscoveRx (PathHunter β-Arrestin orphan GPCR panel)
# Source text: as §1
# GPR148 = target: T3, GPR148 (Homo sapiens, UniProt Q8TDV2)
# T3 construct: purchased DiscoveRx (PathHunter β-Arrestin orphan GPCR panel)
# Source text: as §1
# GPR152 = target: T4, GPR152 (Homo sapiens, UniProt Q8TDT2)
# T4 construct: purchased DiscoveRx (PathHunter β-Arrestin orphan GPCR panel)
# Source text: as §1
# GPR151 = target: T5, GPR151 (Homo sapiens, UniProt Q8TDV0)
# T5 construct: purchased DiscoveRx (PathHunter β-Arrestin orphan GPCR panel)
# Source text: as §1
# GPR37L1 = target: T6, GPR37L1 (Homo sapiens, UniProt O60883)
# T6 construct: purchased DiscoveRx (PathHunter β-Arrestin orphan GPCR panel)
# Source text: as §1
# GPR171 = target: T7, GPR171 (Homo sapiens, UniProt O14626)
# T7 construct: purchased DiscoveRx (PathHunter β-Arrestin orphan GPCR panel)
# Source text: as §1
# GPR146 = target: T8, GPR146 (Homo sapiens, UniProt Q96CH1)
# T8 construct: purchased DiscoveRx (PathHunter β-Arrestin orphan GPCR panel)
# Source text: as §1
# GPR12 = target: T9, GPR12 (Homo sapiens, UniProt P47775)
# T9 construct: purchased DiscoveRx (PathHunter β-Arrestin orphan GPCR panel)
# Source text: as §1
# GPR141 = target: T10, GPR141 (Homo sapiens, UniProt Q7Z602)
# T10 construct: purchased DiscoveRx (PathHunter β-Arrestin orphan GPCR panel)
# Source text: as §1
# GPR3 = target: T11, GPR3 (Homo sapiens, UniProt P46089)
# T11 construct: purchased DiscoveRx (PathHunter β-Arrestin orphan GPCR panel)
# Source text: as §1
# GPR176 = target: T12, GPR176 (Homo sapiens, UniProt Q14439)
# T12 construct: purchased DiscoveRx (PathHunter β-Arrestin orphan GPCR panel)
# Source text: as §1
# GPR142 = target: T13, GPR142 (Homo sapiens, UniProt Q7Z601)
# T13 construct: purchased DiscoveRx (PathHunter β-Arrestin orphan GPCR panel)
# Source text: as §1
# GPR26 = target: T14, GPR26 (Homo sapiens, UniProt Q8NDV2)
# T14 construct: purchased DiscoveRx (PathHunter β-Arrestin orphan GPCR panel)
# Source text: as §1
# GPR123 = target: T15, GPR123 (Homo sapiens, UniProt Q86SQ6)
# T15 construct: purchased DiscoveRx (PathHunter β-Arrestin orphan GPCR panel)
# Source text: as §1
# GPR132 = target: T16, GPR132 (Homo sapiens, UniProt Q9UNW8)
# T16 construct: purchased DiscoveRx (PathHunter β-Arrestin orphan GPCR panel)
# Source text: as §1
# GPR15 = target: T17, GPR15 (Homo sapiens, UniProt P49685)
# T17 construct: purchased DiscoveRx (PathHunter β-Arrestin orphan GPCR panel)
# Source text: as §1
# GPR18 = target: T18, GPR18 (Homo sapiens, UniProt Q14330)
# T18 construct: purchased DiscoveRx (PathHunter β-Arrestin orphan GPCR panel)
# Source text: as §1
# GPR149 = target: T19, GPR149 (Homo sapiens, UniProt Q86SP6)
# T19 construct: purchased DiscoveRx (PathHunter β-Arrestin orphan GPCR panel)
# Source text: as §1
# GPR150 = target: T20, GPR150 (Homo sapiens, UniProt Q8NGU9)
# T20 construct: purchased DiscoveRx (PathHunter β-Arrestin orphan GPCR panel)
# Source text: as §1
# GPR135 = target: T21, GPR135 (Homo sapiens, UniProt Q8IZ08)
# T21 construct: purchased DiscoveRx (PathHunter β-Arrestin orphan GPCR panel)
# Source text: as §1
# GPR103 = target: T22, GPR103 (Homo sapiens, UniProt Q96P65)
# T22 construct: purchased DiscoveRx (PathHunter β-Arrestin orphan GPCR panel)
# Source text: as §1
# GPR32 = target: T23, GPR32 (Homo sapiens, UniProt O75388)
# T23 construct: purchased DiscoveRx (PathHunter β-Arrestin orphan GPCR panel)
# Source text: as §1
# GPR143 = target: T24, GPR143 (Homo sapiens, UniProt P51810)
# T24 construct: purchased DiscoveRx (PathHunter β-Arrestin orphan GPCR panel)
# Source text: as §1
# GPR173 = target: T25, GPR173 (Homo sapiens, UniProt Q9NS66)
# T25 construct: purchased DiscoveRx (PathHunter β-Arrestin orphan GPCR panel)
# Source text: as §1
# GPR101 = target: T26, GPR101 (Homo sapiens, UniProt Q96P66)
# T26 construct: purchased DiscoveRx (PathHunter β-Arrestin orphan GPCR panel)
# Source text: as §1
# GPR23 = target: T27, GPR23 (Homo sapiens, UniProt Q99677)
# T27 construct: purchased DiscoveRx (PathHunter β-Arrestin orphan GPCR panel)
# Source text: as §1
# GPR20 = target: T28, GPR20 (Homo sapiens, UniProt Q99678)
# T28 construct: purchased DiscoveRx (PathHunter β-Arrestin orphan GPCR panel)
# Source text: as §1
# GPR25 = target: T29, GPR25 (Homo sapiens, UniProt O00155)
# T29 construct: purchased DiscoveRx (PathHunter β-Arrestin orphan GPCR panel)
# Source text: as §1
# GPR17 = target: T30, GPR17 (Homo sapiens, UniProt Q13304)
# T30 construct: purchased DiscoveRx (PathHunter β-Arrestin orphan GPCR panel)
# Source text: as §1
# CMKLR2 = target: T31, CMKLR2 (Homo sapiens, UniProt P46091)
# T31 construct: purchased DiscoveRx (PathHunter β-Arrestin orphan GPCR panel)
# Source text: as §1
# ADMR = target: T32, ADMR (Homo sapiens, UniProt O15218)
# T32 construct: purchased DiscoveRx (PathHunter β-Arrestin orphan GPCR panel)
# Source text: as §1
# DARC = target: T33, DARC (Homo sapiens, UniProt Q16570)
# T33 construct: purchased DiscoveRx (PathHunter β-Arrestin orphan GPCR panel)
# Source text: as §1
# GPR182 = target: T34, GPR182 (Homo sapiens, UniProt O15218)
# T34 construct: purchased DiscoveRx (PathHunter β-Arrestin orphan GPCR panel)
# Source text: as §1
# GPR139 = target: T35, GPR139 (Homo sapiens, UniProt Q6DWJ6)
# T35 construct: purchased DiscoveRx (PathHunter β-Arrestin orphan GPCR panel)
# Source text: as §1
# GPR161 = target: T36, GPR161 (Homo sapiens, UniProt Q8N6U8)
# T36 construct: purchased DiscoveRx (PathHunter β-Arrestin orphan GPCR panel)
# Source text: as §1
# GPR27 = target: T37, GPR27 (Homo sapiens, UniProt Q9NS67)
# T37 construct: purchased DiscoveRx (PathHunter β-Arrestin orphan GPCR panel)
# Source text: as §1
# BAI3 = target: T38, BAI3 (Homo sapiens, UniProt O60242)
# T38 construct: purchased DiscoveRx (PathHunter β-Arrestin orphan GPCR panel)
# Source text: as §1
# BAI1 = target: T39, BAI1 (Homo sapiens, UniProt O14514)
# T39 construct: purchased DiscoveRx (PathHunter β-Arrestin orphan GPCR panel)
# Source text: as §1
# GPR37 = target: T40, GPR37 (Homo sapiens, UniProt O15354)
# T40 construct: purchased DiscoveRx (PathHunter β-Arrestin orphan GPCR panel)
# Source text: as §1
# GPR157 = target: T41, GPR157 (Homo sapiens, UniProt Q5UAW9)
# T41 construct: purchased DiscoveRx (PathHunter β-Arrestin orphan GPCR panel)
# Source text: as §1
# GPR107 = target: T42, GPR107 (Homo sapiens, UniProt Q5VW38)
# T42 construct: purchased DiscoveRx (PathHunter β-Arrestin orphan GPCR panel)
# Source text: as §1
# GHSR1B = target: T43, GHSR1B (Homo sapiens, UniProt Q92847)
# T43 construct: purchased DiscoveRx (PathHunter β-Arrestin orphan GPCR panel)
# Source text: as §1
# BAI2 = target: T44, BAI2 (Homo sapiens, UniProt O60241)
# T44 construct: purchased DiscoveRx (PathHunter β-Arrestin orphan GPCR panel)
# Source text: as §1
# GPR31 = target: T45, GPR31 (Homo sapiens, UniProt O00270)
# T45 construct: purchased DiscoveRx (PathHunter β-Arrestin orphan GPCR panel)
# Source text: as §1
# EBI2 = target: T46, EBI2 (Homo sapiens, UniProt P32249)
# T46 construct: purchased DiscoveRx (PathHunter β-Arrestin orphan GPCR panel)
# Source text: as §1
# CCRL2 = target: T47, CCRL2 (Homo sapiens, UniProt O00421)
# T47 construct: purchased DiscoveRx (PathHunter β-Arrestin orphan GPCR panel)
# Source text: as §1
# T10 sequence (Q7Z602 whole entry): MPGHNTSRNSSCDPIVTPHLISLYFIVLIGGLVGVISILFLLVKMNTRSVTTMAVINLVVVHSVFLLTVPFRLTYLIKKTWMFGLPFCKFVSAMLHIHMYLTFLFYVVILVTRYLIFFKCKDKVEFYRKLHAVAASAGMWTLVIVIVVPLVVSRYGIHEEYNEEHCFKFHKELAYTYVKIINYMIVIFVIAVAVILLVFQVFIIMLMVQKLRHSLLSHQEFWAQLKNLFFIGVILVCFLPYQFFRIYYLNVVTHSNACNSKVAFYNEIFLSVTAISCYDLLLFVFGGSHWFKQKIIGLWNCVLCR
# T29 sequence (O00155 whole entry): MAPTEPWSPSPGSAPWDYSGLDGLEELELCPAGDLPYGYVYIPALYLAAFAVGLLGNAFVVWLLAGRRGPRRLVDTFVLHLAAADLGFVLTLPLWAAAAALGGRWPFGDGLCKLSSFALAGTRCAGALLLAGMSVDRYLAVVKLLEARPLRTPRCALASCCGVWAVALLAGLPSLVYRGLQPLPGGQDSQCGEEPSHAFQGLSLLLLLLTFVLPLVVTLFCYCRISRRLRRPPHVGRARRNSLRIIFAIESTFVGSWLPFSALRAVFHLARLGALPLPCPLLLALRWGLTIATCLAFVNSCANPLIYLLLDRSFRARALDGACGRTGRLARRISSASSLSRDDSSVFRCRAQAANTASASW
# T2 sequence (Q99527 whole entry): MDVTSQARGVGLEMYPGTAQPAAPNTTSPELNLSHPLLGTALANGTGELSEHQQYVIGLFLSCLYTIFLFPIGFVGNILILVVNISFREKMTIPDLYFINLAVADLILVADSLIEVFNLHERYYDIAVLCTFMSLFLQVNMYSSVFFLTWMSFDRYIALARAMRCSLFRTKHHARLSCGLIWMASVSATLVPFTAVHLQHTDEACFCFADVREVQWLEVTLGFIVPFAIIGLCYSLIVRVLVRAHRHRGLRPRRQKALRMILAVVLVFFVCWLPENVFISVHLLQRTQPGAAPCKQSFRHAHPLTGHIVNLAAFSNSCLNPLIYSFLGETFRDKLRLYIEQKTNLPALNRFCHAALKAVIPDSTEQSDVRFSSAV
# T14 sequence (Q8NDV2 whole entry): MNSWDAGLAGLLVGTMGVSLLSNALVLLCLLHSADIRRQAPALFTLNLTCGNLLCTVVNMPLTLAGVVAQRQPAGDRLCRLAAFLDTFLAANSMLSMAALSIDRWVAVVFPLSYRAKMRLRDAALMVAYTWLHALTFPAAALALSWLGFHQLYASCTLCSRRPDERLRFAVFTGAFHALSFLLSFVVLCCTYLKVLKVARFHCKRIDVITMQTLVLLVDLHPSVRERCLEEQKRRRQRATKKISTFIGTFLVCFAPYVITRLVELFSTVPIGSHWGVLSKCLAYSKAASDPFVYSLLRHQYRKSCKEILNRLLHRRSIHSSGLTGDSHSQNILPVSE
# T33 sequence (Q16570 whole entry): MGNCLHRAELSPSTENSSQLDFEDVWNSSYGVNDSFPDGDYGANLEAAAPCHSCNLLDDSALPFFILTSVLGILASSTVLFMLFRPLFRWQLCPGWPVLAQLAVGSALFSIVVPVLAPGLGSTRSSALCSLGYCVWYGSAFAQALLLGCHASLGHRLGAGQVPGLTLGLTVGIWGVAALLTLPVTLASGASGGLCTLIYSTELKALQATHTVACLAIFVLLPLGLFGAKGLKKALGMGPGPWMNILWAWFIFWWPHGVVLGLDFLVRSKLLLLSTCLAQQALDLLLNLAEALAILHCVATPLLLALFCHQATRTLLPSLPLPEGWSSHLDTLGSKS
# T24 sequence (P51810 whole entry): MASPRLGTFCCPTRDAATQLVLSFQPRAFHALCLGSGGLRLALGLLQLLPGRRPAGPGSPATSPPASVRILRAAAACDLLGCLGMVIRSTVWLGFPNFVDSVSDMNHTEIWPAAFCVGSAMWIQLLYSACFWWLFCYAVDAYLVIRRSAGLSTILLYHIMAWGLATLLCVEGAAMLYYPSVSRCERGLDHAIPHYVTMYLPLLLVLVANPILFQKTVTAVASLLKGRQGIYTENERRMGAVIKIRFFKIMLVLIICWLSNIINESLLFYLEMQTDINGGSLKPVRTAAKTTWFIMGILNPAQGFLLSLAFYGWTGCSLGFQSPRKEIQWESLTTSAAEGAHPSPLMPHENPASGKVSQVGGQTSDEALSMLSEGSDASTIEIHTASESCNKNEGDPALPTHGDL
# T11 sequence (P46089 whole entry): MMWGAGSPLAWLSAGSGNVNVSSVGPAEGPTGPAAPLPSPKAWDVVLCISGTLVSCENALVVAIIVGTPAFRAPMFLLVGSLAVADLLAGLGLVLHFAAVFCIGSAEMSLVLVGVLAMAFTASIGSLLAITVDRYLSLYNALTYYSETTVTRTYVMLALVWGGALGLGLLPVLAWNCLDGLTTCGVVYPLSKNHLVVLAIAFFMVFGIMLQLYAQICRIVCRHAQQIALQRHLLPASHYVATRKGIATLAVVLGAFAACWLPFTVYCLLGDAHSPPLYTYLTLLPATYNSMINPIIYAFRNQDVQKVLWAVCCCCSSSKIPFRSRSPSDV
# T39 sequence (O14514 31-1584): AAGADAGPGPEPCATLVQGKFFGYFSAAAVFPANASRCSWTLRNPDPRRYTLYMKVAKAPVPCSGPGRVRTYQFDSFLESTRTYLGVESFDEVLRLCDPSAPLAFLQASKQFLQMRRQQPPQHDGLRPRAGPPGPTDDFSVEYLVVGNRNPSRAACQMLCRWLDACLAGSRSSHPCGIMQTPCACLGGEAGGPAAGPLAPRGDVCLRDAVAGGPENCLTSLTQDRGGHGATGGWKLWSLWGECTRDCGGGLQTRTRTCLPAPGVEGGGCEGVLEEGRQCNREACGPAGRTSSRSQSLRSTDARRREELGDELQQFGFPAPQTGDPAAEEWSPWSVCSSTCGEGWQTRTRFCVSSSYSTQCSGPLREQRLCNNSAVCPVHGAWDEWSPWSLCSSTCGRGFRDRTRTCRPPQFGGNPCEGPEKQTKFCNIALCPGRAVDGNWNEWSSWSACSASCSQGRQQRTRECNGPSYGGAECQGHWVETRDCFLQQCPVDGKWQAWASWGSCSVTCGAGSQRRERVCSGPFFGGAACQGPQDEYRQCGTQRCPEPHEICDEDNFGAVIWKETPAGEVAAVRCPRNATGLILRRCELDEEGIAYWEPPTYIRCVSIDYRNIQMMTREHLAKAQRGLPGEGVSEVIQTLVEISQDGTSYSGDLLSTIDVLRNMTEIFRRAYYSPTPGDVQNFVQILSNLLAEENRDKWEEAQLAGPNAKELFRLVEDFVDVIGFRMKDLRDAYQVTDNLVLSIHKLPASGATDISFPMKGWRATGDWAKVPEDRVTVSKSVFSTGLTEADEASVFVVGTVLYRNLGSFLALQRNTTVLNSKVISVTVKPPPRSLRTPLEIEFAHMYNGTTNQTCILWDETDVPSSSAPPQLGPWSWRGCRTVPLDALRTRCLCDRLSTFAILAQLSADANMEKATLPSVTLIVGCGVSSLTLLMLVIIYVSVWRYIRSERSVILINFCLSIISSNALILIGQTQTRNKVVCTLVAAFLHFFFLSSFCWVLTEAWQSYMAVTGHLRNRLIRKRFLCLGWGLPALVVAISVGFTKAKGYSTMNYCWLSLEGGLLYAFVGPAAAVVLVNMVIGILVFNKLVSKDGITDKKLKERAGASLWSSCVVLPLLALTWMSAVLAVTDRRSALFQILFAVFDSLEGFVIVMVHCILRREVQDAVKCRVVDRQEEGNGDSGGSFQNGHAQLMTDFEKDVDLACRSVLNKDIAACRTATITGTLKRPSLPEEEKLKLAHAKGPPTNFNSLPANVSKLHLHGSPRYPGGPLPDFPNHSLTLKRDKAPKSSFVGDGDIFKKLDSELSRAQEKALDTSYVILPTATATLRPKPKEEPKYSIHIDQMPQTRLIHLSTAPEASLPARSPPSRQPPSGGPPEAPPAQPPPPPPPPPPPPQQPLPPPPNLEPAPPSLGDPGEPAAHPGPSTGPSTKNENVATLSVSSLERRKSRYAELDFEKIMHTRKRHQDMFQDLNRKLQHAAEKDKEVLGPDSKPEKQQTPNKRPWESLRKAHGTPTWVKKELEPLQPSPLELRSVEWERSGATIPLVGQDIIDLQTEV
# T7 sequence (O14626 whole entry): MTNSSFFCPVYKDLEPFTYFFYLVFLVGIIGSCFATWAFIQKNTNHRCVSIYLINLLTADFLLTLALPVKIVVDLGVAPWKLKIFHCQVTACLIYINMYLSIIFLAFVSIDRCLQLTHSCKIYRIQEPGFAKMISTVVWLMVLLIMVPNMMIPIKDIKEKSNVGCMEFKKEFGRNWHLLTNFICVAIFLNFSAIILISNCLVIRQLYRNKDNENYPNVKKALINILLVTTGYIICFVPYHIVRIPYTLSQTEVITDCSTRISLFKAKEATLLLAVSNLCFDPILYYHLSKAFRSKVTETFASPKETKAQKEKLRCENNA
# T36 sequence (Q8N6U8 whole entry): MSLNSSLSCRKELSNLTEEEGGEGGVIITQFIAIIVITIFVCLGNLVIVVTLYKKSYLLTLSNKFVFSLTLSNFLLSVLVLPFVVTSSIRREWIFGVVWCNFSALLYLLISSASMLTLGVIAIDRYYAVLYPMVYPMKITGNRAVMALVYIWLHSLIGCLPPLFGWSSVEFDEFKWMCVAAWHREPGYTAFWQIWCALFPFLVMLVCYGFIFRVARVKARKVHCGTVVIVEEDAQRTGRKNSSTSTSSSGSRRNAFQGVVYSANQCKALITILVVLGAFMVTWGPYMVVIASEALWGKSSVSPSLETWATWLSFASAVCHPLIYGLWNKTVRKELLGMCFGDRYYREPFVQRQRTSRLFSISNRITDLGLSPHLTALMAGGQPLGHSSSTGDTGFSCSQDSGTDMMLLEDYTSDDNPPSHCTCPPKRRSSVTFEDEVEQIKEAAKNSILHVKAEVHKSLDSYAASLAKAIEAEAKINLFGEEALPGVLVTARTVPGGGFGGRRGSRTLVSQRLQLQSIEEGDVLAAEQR
structure (smiles),measurement,setting,value
CCCCC[C@H](O)/C=C/[C@H]1[C@H](O)CC(=O)[C@@H]1C/C=C\CCCC(=O)NC(CO)CO [PGE2-SA],Mean RLU,GPR162,26360 RLU
same,Mean RLU,GPR30,8540 RLU
same,Mean RLU,GPR148,3640 RLU
same,Mean RLU,GPR152,178980 RLU
same,Mean RLU,GPR151,57420 RLU
same,Mean RLU,GPR37L1,36440 RLU
same,Mean RLU,GPR171,4880 RLU
same,Mean RLU,GPR146,15800 RLU
same,Mean RLU,GPR12,680 RLU
same,Mean RLU,GPR141,30420 RLU
same,Mean RLU,GPR3,1524920 RLU
same,Mean RLU,GPR176,380580 RLU
same,Mean RLU,GPR142,2660 RLU
same,Mean RLU,GPR26,2200 RLU
same,Mean RLU,GPR123,1221720 RLU
same,Mean RLU,GPR132,620480 RLU
same,Mean RLU,GPR15,9440 RLU
same,Mean RLU,GPR18,520 RLU
same,Mean RLU,GPR149,29340 RLU
same,Mean RLU,GPR150,31360 RLU
same,Mean RLU,GPR135,16680 RLU
same,Mean RLU,GPR103,56020 RLU
same,Mean RLU,GPR32,129240 RLU
same,Mean RLU,GPR143,91680 RLU
same,Mean RLU,GPR173,62220 RLU
same,Mean RLU,GPR101,30940 RLU
same,Mean RLU,GPR23,990600 RLU
same,Mean RLU,GPR20,74500 RLU
same,Mean RLU,GPR25,6140 RLU
same,Mean RLU,GPR17,805440 RLU
same,Mean RLU,CMKLR2,17240 RLU
same,Mean RLU,ADMR,514420 RLU
same,Mean RLU,DARC,105120 RLU
same,Mean RLU,GPR182,899260 RLU
same,Mean RLU,GPR139,307380 RLU
same,Mean RLU,GPR161,20300 RLU
same,Mean RLU,GPR27,219760 RLU
same,Mean RLU,BAI3,21960 RLU
same,Mean RLU,BAI1,864280 RLU
same,Mean RLU,GPR37,822100 RLU
same,Mean RLU,GPR157,356620 RLU
same,Mean RLU,GPR107,304860 RLU
same,Mean RLU,GHSR1B,2580 RLU
same,Mean RLU,BAI2,15400 RLU
same,Mean RLU,GPR31,7680 RLU
same,Mean RLU,EBI2,46540 RLU
same,Mean RLU,CCRL2,8400 RLU
